Molecular target: T1, aryl hydrocarbon receptor (Rattus norvegicus, UniProt P41738, Q794H)
T1 construct: The SD-line rat AhR gene-coding region was amplified from the reverse-transcribed sample by means of PCR; V5-His (C-terminal tag of vector pcDNA4/V5-His B); expressed in transfected cells; host or cells: mouse neuroblastoma Neuro2a, transient transfection with LIPOFECTAMINE 2000
T1 sequence (P41738 10-853 Q794H): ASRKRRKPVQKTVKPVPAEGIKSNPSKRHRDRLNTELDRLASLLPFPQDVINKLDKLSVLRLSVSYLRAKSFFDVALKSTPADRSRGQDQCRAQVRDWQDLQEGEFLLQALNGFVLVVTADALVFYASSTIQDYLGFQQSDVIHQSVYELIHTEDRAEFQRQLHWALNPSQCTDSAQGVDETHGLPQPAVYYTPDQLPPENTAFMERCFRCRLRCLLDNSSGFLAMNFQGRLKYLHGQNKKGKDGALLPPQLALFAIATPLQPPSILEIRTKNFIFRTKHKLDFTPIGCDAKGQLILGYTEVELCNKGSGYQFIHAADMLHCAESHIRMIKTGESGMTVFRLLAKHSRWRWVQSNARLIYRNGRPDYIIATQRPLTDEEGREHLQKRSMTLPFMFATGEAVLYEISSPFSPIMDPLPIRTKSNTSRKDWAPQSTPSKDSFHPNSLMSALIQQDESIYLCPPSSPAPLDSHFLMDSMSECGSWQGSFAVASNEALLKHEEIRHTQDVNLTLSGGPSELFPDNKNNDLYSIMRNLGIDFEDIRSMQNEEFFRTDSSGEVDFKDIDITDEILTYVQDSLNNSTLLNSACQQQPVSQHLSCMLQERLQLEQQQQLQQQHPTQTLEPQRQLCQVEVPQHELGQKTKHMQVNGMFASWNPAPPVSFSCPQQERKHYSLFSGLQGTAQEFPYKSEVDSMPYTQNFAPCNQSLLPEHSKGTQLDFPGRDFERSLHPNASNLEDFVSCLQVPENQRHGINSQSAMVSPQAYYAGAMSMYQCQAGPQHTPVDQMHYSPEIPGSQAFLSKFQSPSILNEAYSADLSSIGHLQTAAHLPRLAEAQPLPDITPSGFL
Test: Reporter gene assay in Neuro2a with pSV40E100/Luc and pTHE100/Luc (SEQ ID No: 3)
Type: cell-based, SD-line rat
Conditions: 10 nM TCDD; pTHE100/Luc compared with pSV40E100/Luc
Procedure: The TH transcriptional regulatory region of SEQ ID No: 3 (−300 to −200 bp) was used in Example 6. The TH transcriptional regulatory region ranging from −300 to −200 position was prepared by PCR using the 500-bp size of TH transcriptional regulatory region as a template. The following primers were used.
Recognition sequences for restriction enzymes KpnI (for forward primer) and NheI (for reverse primer) were added to the terminal of the respective primers, for the purpose of facilitating incorporation of the PCR amplified fragment into the vector. The region of SEQ ID No: 3 was amplified by using Pyrobest DNA polymerase. The amplified DNA fragment was digested with restriction enzymes KpnI and NheI, and subjected to electrophoresis on agarose. The corresponding band was purified with a QIAQUICK Gel Extraction Kit, and incorporated into PGV-P2 vector previously digested with KpnI and NheI, to obtain a recombinant vector pSV40E100/Luc. The vector PGV-P2 used contains an SV40 early promoter as its promoter region.
In addition, the region of SEQ ID No: 5 (mouse TH gene core promoter region) was amplified by PCR using a forward primer: 5′-[…]-3′ (SEQ ID No: 27) and a reverse primer: 5′-[…]-3′ (SEQ ID No: 28), and using a region of approximately 500 by upstream of the TH gene as the template. […]

Clc1cc2c(cc1Cl)Oc1cc(Cl)c(Cl)cc1O2 [TCDD, 2,3,7,8-tetrachlorodibenzo-p-dioxine]
activity in response to test substance, TH gene core promoter versus SV40 early promoter: higher activity in response to a test substance
